The text below walks through data of PubChem BioAssay (NCI).

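The compound was tested at five concentrations on cells cultured in 96-well plates, with a 48-hour exposure period. Here, GI50 denotes the concentration required for 50% inhibition of growth. Definition used: TGI = concentration required for complete inhibition of growth.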

Among the test systems are OVCAR-5 ovarian; RPMI-8226 leukemia; MDA-MB-435; SK-MEL-28 melanoma; U251 CNS; SNB-75 CNS; EKVX NSCLC; NCI-H226 lung; MDA-MB-231 breast; SF-539 CNS; SK-MEL-2 melanoma.
Holding throughout (experiment): DTP human tumour cell line panel, 48 h

For the compound `COC(=O)C(=O)C(C(=O)OC)C(=O)C(=O)Nc1c(Cl)cc([N+](=O)[O-])cc1Cl` (stereo not given), the TGI with OVCAR-5 ovarian, in the assay with RPMI-8226 leukemia, in the assay with MDA-MB-435, in the assay with SK-MEL-28 melanoma, with U251 CNS and in the assay on SNB-75 CNS was greater than 100 µM each time. For the same compound, the TGI in the assay with EKVX NSCLC, in the assay on NCI-H226 lung, in the assay with MDA-MB-231 breast, in the assay with SF-539 CNS and in the assay with SK-MEL-2 melanoma was greater than 100 µM in each case.
With `CN(C)CC1CCC/C(=C\c2ccc(OC(=O)/C=C/c3ccc(Cl)cc3)cc2)C1=O` (stereo not given), the TGI (in general, the concentration at which net growth stops) was 25.7 µM in the assay on OVCAR-5 ovarian; 1.8 µM with RPMI-8226 leukemia; 21.1 µM in the assay on MDA-MB-435; 14.7 µM in the assay with SK-MEL-28 melanoma; 9.97 µM in the assay on U251 CNS; 24.9 µM in the assay with SNB-75 CNS. The TGI in the assay on EKVX NSCLC is 15.2 µM; in the assay with NCI-H226 lung, 20.2 µM; with MDA-MB-231 breast, 21 µM; with SF-539 CNS it was 5.79 µM; with SK-MEL-2 melanoma, 25.1 µM.
Turning to `NC(=S)N1N=C2c3ccccc3CCC[C@H]2[C@@H]1c1ccccc1`, the concentration for total growth inhibition (TGI) was found to be 55.5 µM in the assay with OVCAR-5 ovarian; 17.2 µM with RPMI-8226 leukemia; 0.326 µM with MDA-MB-435; 32.6 µM in the assay with SK-MEL-28 melanoma; 17.7 µM in the assay with U251 CNS; 0.9 µM with SNB-75 CNS. The concentration for total growth inhibition (TGI) in the assay on EKVX NSCLC came to 70.2 µM; in the assay on NCI-H226 lung, 11.1 µM; with MDA-MB-231 breast it was 17.1 µM; in the assay with SF-539 CNS, 2.61 µM; with SK-MEL-2 melanoma, 5.94 µM.
As to `Cc1cc(O)c2c(c1)C(C1c3cccc(O)c3C(=O)c3c(O)cc(C)cc31)c1cccc(O)c1C2=O` (stereo not given), the TGI with OVCAR-5 ovarian was 11.8 µM; with RPMI-8226 leukemia, 0.8 µM; with MDA-MB-435, 10.7 µM; in the assay with SK-MEL-28 melanoma, 12.6 µM; with U251 CNS it was 12.3 µM; with SNB-75 CNS, 0.855 µM. In addition, the TGI came out at 4.15 µM with EKVX NSCLC; 2.24 µM with NCI-H226 lung; 1.73 µM in the assay on MDA-MB-231 breast; 0.556 µM with SF-539 CNS; 0.692 µM with SK-MEL-2 melanoma.
In the case of `COc1cccc(OC)c1NC(=O)C(=O)Nn1c(NNC(=O)c2ccncc2)nc2ccccc2c1=O`, the total growth inhibition concentration (TGI) in the assay on OVCAR-5 ovarian, in the assay on RPMI-8226 leukemia, in the assay on MDA-MB-435, in the assay on SK-MEL-28 melanoma, with U251 CNS and in the assay with SNB-75 CNS was greater than 100 µM throughout. The total growth inhibition concentration (TGI) in the assay with EKVX NSCLC, with NCI-H226 lung, in the assay with MDA-MB-231 breast, in the assay with SF-539 CNS and in the assay with SK-MEL-2 melanoma was greater than 100 µM in each case.
For the compound `CCCN(CCC)C(=O)c1c(N2CCN(C)CC2)c2cccnc2n2c(C)cnc12`, the TGI in the assay on OVCAR-5 ovarian, with RPMI-8226 leukemia, with MDA-MB-435, with SK-MEL-28 melanoma, in the assay on U251 CNS and in the assay on SNB-75 CNS was greater than 100 µM each time. For the same compound, the total growth inhibition concentration (TGI) in the assay with EKVX NSCLC, in the assay with NCI-H226 lung, in the assay on MDA-MB-231 breast, with SF-539 CNS and with SK-MEL-2 melanoma was greater than 100 µM each time.
Take `C=C1CCOC2(C(O)C(C)(O)CO)NC(=O)C1(O)NC2=O` (stereo not given): the TGI with OVCAR-5 ovarian, in the assay with RPMI-8226 leukemia, in the assay on MDA-MB-435, in the assay with SK-MEL-28 melanoma, in the assay on U251 CNS and with SNB-75 CNS was greater than 100 µM in each case. Moreover, the TGI in the assay with EKVX NSCLC, in the assay on NCI-H226 lung, in the assay with MDA-MB-231 breast, in the assay on SF-539 CNS and in the assay on SK-MEL-2 melanoma was greater than 100 µM each time.
`COc1cc(/C=C/C(=N\NC(N)=S)c2sc(NNC(C)=O)nc2C)ccc1O`: the total growth inhibition concentration (TGI) in the assay with OVCAR-5 ovarian, with RPMI-8226 leukemia, with MDA-MB-435, with SK-MEL-28 melanoma, in the assay on U251 CNS and in the assay with SNB-75 CNS was greater than 100 µM throughout. Moreover, the TGI in the assay on EKVX NSCLC, with NCI-H226 lung, in the assay with MDA-MB-231 breast, with SF-539 CNS and with SK-MEL-2 melanoma was greater than 100 µM throughout.
Consider `Fc1ccc(C(OCCN2CCC3CCC(C2)N3C/C=C/c2cccs2)c2ccc(F)cc2)cc1` (stereo not given), for which the TGI in the assay on OVCAR-5 ovarian is 25.9 µM; with RPMI-8226 leukemia it was 1.78 µM; with MDA-MB-435, 20.5 µM; in the assay with SK-MEL-28 melanoma, 19.1 µM; with U251 CNS, 18.8 µM; in the assay with SNB-75 CNS it was 29 µM. Also, the total growth inhibition concentration (TGI) with EKVX NSCLC was found to be 16.5 µM; with NCI-H226 lung it was 22.1 µM; in the assay with MDA-MB-231 breast it was 21.3 µM; in the assay with SF-539 CNS it was 22.5 µM; with SK-MEL-2 melanoma, 24.1 µM.
Regarding `COc1cc2c[n+](C)c3c4cc(OC)c(OCc5ccccc5)cc4c(OCc4ccccc4)cc3c2cc1OC`, the TGI in the assay with OVCAR-5 ovarian was greater than 100 µM; in the assay on RPMI-8226 leukemia, greater than 86 µM; in the assay on MDA-MB-435, 10.5 µM; in the assay with SK-MEL-28 melanoma, 20.2 µM; in the assay with U251 CNS, 12.9 µM; in the assay with SNB-75 CNS, 22.6 µM. Moreover, the TGI is greater than 100 µM in the assay on EKVX NSCLC; 43.9 µM in the assay with NCI-H226 lung; 18.4 µM in the assay on MDA-MB-231 breast; 11.8 µM with SF-539 CNS; 6.29 µM in the assay on SK-MEL-2 melanoma.
For the compound `CC(NNC(=O)c1ccncc1)c1cccc(C(F)(F)F)c1` (stereo not given), the TGI in the assay with OVCAR-5 ovarian, with RPMI-8226 leukemia, in the assay with MDA-MB-435, in the assay on SK-MEL-28 melanoma, in the assay on U251 CNS and in the assay with SNB-75 CNS was greater than 100 µM each time. Also, the total growth inhibition concentration (TGI) with EKVX NSCLC, with NCI-H226 lung, with MDA-MB-231 breast, in the assay on SF-539 CNS and in the assay with SK-MEL-2 melanoma was greater than 100 µM in each case.
On to `NC1=Nc2ccccc2Sc2cccc(F)c21`, for which the TGI with OVCAR-5 ovarian, in the assay on RPMI-8226 leukemia, in the assay on MDA-MB-435, in the assay with SK-MEL-28 melanoma, in the assay with U251 CNS and in the assay on SNB-75 CNS was greater than 100 µM each time. Besides, the TGI in the assay with EKVX NSCLC, with NCI-H226 lung, with MDA-MB-231 breast, in the assay with SF-539 CNS and in the assay with SK-MEL-2 melanoma was greater than 100 µM each time.
Consider `Cc1ccc(S(=O)(=O)N(CCNC(=O)c2cccc(O)c2O)c2cc3c4c(c2)Oc2cccc5c2C4(C)c2c(cccc2O3)O5)cc1`, for which the TGI in the assay on OVCAR-5 ovarian, with RPMI-8226 leukemia, in the assay on MDA-MB-435, in the assay with SK-MEL-28 melanoma, in the assay with U251 CNS and in the assay on SNB-75 CNS was greater than 100 µM throughout. The TGI in the assay on EKVX NSCLC is greater than 100 µM; in the assay with NCI-H226 lung, 65.8 µM; with MDA-MB-231 breast, greater than 100 µM; with SF-539 CNS it was greater than 100 µM; in the assay with SK-MEL-2 melanoma, greater than 100 µM.
For the compound `COc1ccc(-c2oc3cc(O)c(OC)c(O)c3c(=O)c2O)cc1`, the concentration for total growth inhibition (TGI) in the assay with OVCAR-5 ovarian was greater than 70.1 µM; in the assay with RPMI-8226 leukemia, 31.5 µM; with MDA-MB-435 it was greater than 100 µM; in the assay with SK-MEL-28 melanoma it was greater than 100 µM; in the assay on U251 CNS, 30.2 µM; with SNB-75 CNS it was 63.2 µM. The TGI was greater than 100 µM in the assay with EKVX NSCLC; 24.4 µM with NCI-H226 lung; greater than 100 µM with MDA-MB-231 breast; 41.6 µM with SF-539 CNS; greater than 100 µM in the assay on SK-MEL-2 melanoma.
With `CC1CN(CCO)CCN1c1ccccc1` (stereo not given), the TGI in the assay with OVCAR-5 ovarian, in the assay with RPMI-8226 leukemia, in the assay on MDA-MB-435, in the assay with SK-MEL-28 melanoma, in the assay with U251 CNS and with SNB-75 CNS was greater than 100 µM throughout. Besides, the TGI with EKVX NSCLC, in the assay on NCI-H226 lung, in the assay with MDA-MB-231 breast, with SF-539 CNS and in the assay with SK-MEL-2 melanoma was greater than 100 µM in each case.
Regarding `COc1ccc([I+]c2ccc(OC)cc2)cc1`, the GI50 (commonly the concentration giving 50% growth inhibition) was greater than 60.8 µM with OVCAR-5 ovarian; 4.16 µM in the assay with RPMI-8226 leukemia; 14.7 µM in the assay on MDA-MB-435; 20.6 µM in the assay on SK-MEL-28 melanoma; 7.58 µM with U251 CNS; 14.9 µM in the assay on SNB-75 CNS. Moreover, the GI50 in the assay with NCI-H226 lung is 14.4 µM; in the assay on SF-539 CNS it was 11 µM; in the assay on SK-MEL-2 melanoma, 43.9 µM. Besides, the TGI in the assay with OVCAR-5 ovarian, in the assay with RPMI-8226 leukemia, in the assay with MDA-MB-435, with SK-MEL-28 melanoma, in the assay on U251 CNS and with SNB-75 CNS was greater than 100 µM throughout. In addition, the TGI with EKVX NSCLC, with NCI-H226 lung, with MDA-MB-231 breast, with SF-539 CNS and in the assay on SK-MEL-2 melanoma was greater than 100 µM each time.
